The test system of data set [1] is Sarcoma 180 tumors. The experiment in a line: Therapeutic index (LD50/ED90), implanted Sarcoma 180 tumors. Type of data set: in vivo, Swiss white mice. On the set-up: ED90: unit not given here. The note with it: for Therapeutic Index: LD50/ED90; for Maximum % ILS (Dosage): S 180 ascites; for ED90: dose giving 50% increase in life span for 90% of the animals, determined graphically.

The nature of the next data set: Solubility. In kind it is physicochemical.
A further data set concerns S180 ascites. The data set is described as follows: Anti-tumor evaluation against S180 ascites in mice (% increase in life span, survivors). In kind it is in vivo, female CFW Swiss mice. The note with it: S 180 ascites; for Survivors: day of evaluation. As to the method:
The above prepared compounds were evaluated against S180 ascites in female CFW Swiss mice. The mice were weighed (average weight: 20 g), placed into cages (six mice to a cage) and on day zero the mice were inoculated with 0.2 ml of a freshly prepared saline suspension (0.15 M NaCl) containing 1×10^7 tumor cells/ml or a total of 2×10^6 cells. This inoculum was freshly prepared using "transfer" mice which had been injected with tumor cells the previous week; it was obtained via the following steps: (1) the removal of cells from the peritoneal cavity of the sacrificed transfer mouse, (2) alternate centrifugation and washing operations (2-3 times with cold saline) to remove blood and other components, and (3) dilution of the volume of the packed cell with saline (1:3). A final centrifugation was carried out at 1000 RPM over a two minute period. A cell count was made on a 2,000-fold dilution of this 1:3 suspension by means of a Coulter Counter. A final dilution to 1×10^7 cells/ml was made based on the average count.
On day 1, solutions of the test compounds were prepared and each mouse in a set of six were injected with the same test compound at the same dosage. The doses were based on the average weight of the animals (cage weight). Also, beginning on day 1 two controls were employed containing six mice per control:
(1) Normal Control: This consisted solely of the carrier or diluent used in combination with the test compound; and
(2) Positive Control: This consisted solely of the known anti-tumor agent cis-[Pt(NH3)2 Cl2 ] (Cisplatin) in saline (8 mg/kg) to test the response of the biological system.
The effectiveness of a test compound was measured in terms of the % increase in life span (%ILS) of the test mice relative to the Normal Control (Calculated from the day of tumor inoculation, i.e., day zero). To standardize the test data and permit intercomparisons, the day of evaluation was arbitrarily taken as that day corresponding to twice the mean life span (or average day of death) of the control. This established a practical upper limit of 100% on the %ILS attainable. For calculation purposes the survivors on the day of evaluation were considered to have died on that day. The %ILS was calculated as follows: [formula] ILS values in excess of 50% were interpreted as being indicative of anti-tumor activity, whereas, values in excess of 75% indicated excellent activity.
The products of Examples 1, 4, 10 and 11 were administered in a freshly prepared 1% sodium bicarbonate solution; the remaining test compounds were administered as slurries in 0.5% "Klucel" (hydroxypropylcellulose).

Data set [2] concerns Sarcoma 180 tumors. The note with it: comparison value; cited from earlier work.

Values joined by “and” are separate entries in the source; they are usually repeats but may differ in a detail not shown here. Equal values may be shown once.

With `O=C(O)c1ccc[n+]([Au-]([Cl])([Cl])[Cl])c1` [Example 1, Trichloro(Nicotinic Acid)Gold(III)], the “Therapeutic Index” value with Sarcoma 180 tumors [1] turned out to be 5.8. In addition, the “Maximum % ILS (Dosage)” value with Sarcoma 180 tumors [1] (80 mg/kg) stood at 98%. In the data set with Sarcoma 180 tumors [1], this compound came in with an ED90 of 31. Moreover, the “solubility in 1% sodium bicarbonate solution” value in the data set “Solubility” turned out to be 12.8 mg/mL. For the same compound, the “peak ILS values” in the data set with S180 ascites is more than 90%. In addition, the “% ILS” value with S180 ascites (10 mg/kg) is -3%; in the data set with S180 ascites (20 mg/kg), 60%; in the data set with S180 ascites (40 mg/kg) it was 91%; with S180 ascites (80 mg/kg) it was 98%; in the data set with S180 ascites (160 mg/kg), 1%; in the data set on S180 ascites (320 mg/kg), -69%. Moreover, the Survivors with S180 ascites (10 mg/kg) is 0 of 6; with S180 ascites (20 mg/kg), 3 of 6; in the data set on S180 ascites (40 mg/kg) it was 3 of 6; with S180 ascites (80 mg/kg), 4 of 6; in the data set with S180 ascites (160 mg/kg) it was 0 of 6; in the data set with S180 ascites (320 mg/kg), 0 of 6.

For `O=C(O)Cc1ccc[n+]([Au-]([Cl])([Cl])[Cl])c1` [Example 4, trichloro(3-pyridyacetic acid)gold(III)], the “Therapeutic Index” value with Sarcoma 180 tumors [1] amounted to 1.8. For the same compound, in the data set on Sarcoma 180 tumors [1] (40 mg/kg), the “Maximum % ILS (Dosage)” value is listed as 63%. This compound had an ED90 in the data set with Sarcoma 180 tumors [1] of 84. The “solubility in 1% sodium bicarbonate solution” value in the data set “Solubility” is 12.8 mg/mL. The “% ILS” value in the data set with S180 ascites (10 mg/kg) is 6%; in the data set with S180 ascites (20 mg/kg) it was -15%; in the data set with S180 ascites (40 mg/kg), 63%; in the data set on S180 ascites (80 mg/kg), 57%; in the data set on S180 ascites (160 mg/kg), -41%; in the data set with S180 ascites (320 mg/kg) it was -90%. Moreover, the Survivors with S180 ascites (10 mg/kg) is given as 0 of 6; with S180 ascites (20 mg/kg), 0 of 6; with S180 ascites (40 mg/kg) it was 1 of 6; in the data set on S180 ascites (80 mg/kg) it was 1 of 6; in the data set with S180 ascites (160 mg/kg), 0 of 6; in the data set on S180 ascites (320 mg/kg), 0 of 6. Further, the “Anti-tumor activity (in words)” value in the data set with S180 ascites (50% ILS criterion) is “pronounced antitumor effect”.

For the compound “cis-[Pt(NH3)2 Cl2 ] [Cisplatin, reference compound]”, in the data set on Sarcoma 180 tumors [2], the “Therapeutic index attributed to commercially available Cisplatin” value is on record as 2.2-2.5. Moreover, the “Positive Control Survivors” value in the data set with S180 ascites (Cisplatin in saline, 8 mg/kg, one value per test series, listed as Positive Control) was 0 of 6 and 4 of 6 and 6 of 6 and 1 of 6.

Values taken from patent US4921847A, “Trihalo(amine)gold(III) anti-tumor complexes” (Engelhard Corporation, priority 1989, dated 1990).
